Consider one substance from article PMC8746970, “Determination of the Peptide AWRK6 in Rat Plasma by Liquid Chromatography-Tandem Mass Spectrometry (LC-MS/MS) and Its Application to Pharmacokinetics” (Molecules, 2021).

This data set is described as follows: Stability of AWRK6 QC samples in rat plasma under storage conditions. To be noted: for measured concentration of QC sample after storage / relative error of QC sample after storage: rat plasma QC, LC-MS/MS, n = 3; for measured concentration of QC sample after storage: mean ± SD. Type of data set: in vitro ADME. The protocol: The AWRK6 and IS were dissolved in water at 1.0 mg/mL for stock solution. The AWRK6 calibration standards at 0.05, 0.1, 0.5, 1, 2, 5, and 10 μg/mL were prepared by mixing 50 μL of working solution and 100 μL of blank plasma individually. QC samples of AWRK6 at 0.1, 0.5, and 5 μg/mL were prepared by the same method. The thawed plasma samples (100 μL) were mixed with 50 μL water (or QC), 50 μL IS (1 μg/mL), and 20 μL FA-water (25:75, v/v). A combination of plasma precipitation and liquid–liquid extraction was applied for the extraction of AWRK6 in samples. After adding 200 μL methanol and 100 μL dichloromethane, the mixtures were vortexed for 30 s and centrifuged at 14,000 g for 10 min. The supernatant was filtered by 0.22 μm membrane for LC-MS/MS analysis.
The method was validated for specificity, linearity, LOD, LOQ, LLOQ, precision, accuracy, recovery, matrix effect, and stability according to U.S. FDA guidelines. Specificity was determined using blank plasma samples from 6 rats. Linearity was accessed using calibration standards in triplicate within 3 consecutive days. LOD and LOQ were estimated as concentrations of AWRK6 which generated S/N value of 3 or 10, and they were verified by continuous evaluating the S/N value of 3 LOD samples or 6 LOQ samples. LLOQ was determined using 6 calibration standard samples at 0.05 μg/mL. Precision and accuracy were accessed using QC samples and repeated 6 times within 3 consecutive days. Recovery was calculated by comparing the respective peak areas of the QC samples with the blank plasma samples spiked after extraction (repeated 6 times). Matrix effect was evaluated by comparing the respective peak areas of the QC samples with standard solutions (AWRK6 and IS in water, respectively) at the same concentrations (repeated 6 times). Stability was analyzed using QC samples under different storage conditions including room temperature for 6 h, 3 freeze–thaw cycles, 4 °C for 12 h, and−20 °C for 7 days.

Where [1] appears, read: nominal 0.100 μg/mL, room temperature for 6 h.
[2] abbreviates: nominal 0.100 μg/mL, storage at 4 °C for 12 h.
Where [3] appears, read: nominal 0.100 μg/mL, storage at −20 °C for 7 days.
Setting [4] is: nominal 0.100 μg/mL, three freeze–thaw cycles.
[5] abbreviates: nominal 0.500 μg/mL, room temperature for 6 h.
Where [6] appears, read: nominal 0.500 μg/mL, storage at 4 °C for 12 h.
The mark [7] stands for this setting: nominal 0.500 μg/mL, storage at −20 °C for 7 days.
Setting [8] is: nominal 0.500 μg/mL, three freeze–thaw cycles.
The mark [9] stands for this setting: nominal 5.000 μg/mL, storage at 4 °C for 12 h.
The mark [10] stands for this setting: nominal 5.000 μg/mL, storage at −20 °C for 7 days.
Setting [11] is: nominal 5.000 μg/mL, three freeze–thaw cycles.

No end group written: not given here. A value given as a limit tells only on which side of the number the result lay.

Take “SWVGKHGKKFGLKKHKKH-NH2 (C-terminus assumed) [AWRK6]”: the “relative error of QC samples (stability acceptable)” value (rat plasma QC 0.1, 0.5, 5 μg/mL, room temperature for 6 h, 3 freeze–thaw cycles, and 4 °C for 12 h) is listed as under 12%. Moreover, the “relative error of QC samples (significant degradation)” value (rat plasma QC 0.1, 0.5, 5 μg/mL, storage at −20 °C for 7 days) is given as −16.94 to −34.74%. Further, the “measured concentration of QC sample after storage” value runs as follows: under setting [1], 0.089 ± 0.007 µg/mL; under setting [2], 0.084 ± 0.013 µg/mL; under setting [3], 0.062 ± 0.018 µg/mL; under setting [4], 0.091 ± 0.008 µg/mL; under setting [5], 0.462 ± 0.021 µg/mL; under setting [6], 0.442 ± 0.015 µg/mL. Besides, the “measured concentration of QC sample after storage” value reads like this: under setting [7], 0.387 ± 0.047 µg/mL; under setting [8], 0.477 ± 0.016 µg/mL; under setting [9], 4.881 ± 0.301 µg/mL; under setting [10], 4.153 ± 0.442 µg/mL; under setting [11], 4.912 ± 0.049 µg/mL. For the same substance, the “relative error of QC sample after storage” value reads like this: under setting [1], −6.315%; under setting [2], −11.579%; under setting [3], −34.737%; under setting [4], −4.210%; under setting [5], −4.742%; under setting [6], −8.866%. Further, the “relative error of QC sample after storage” value is on record as −20.206% under setting [7]; −1.649% under setting [8]; −1.040% under setting [9]; −16.940% under setting [10]; −0.409% under setting [11].
